Like-named read-outs stand apart in the source and are kept apart here.
Key:
[1] = system: MES-SA cells; experiment: MTT viability assay, MES-SA; assay type: cell-based, human; conditions: Table 2, value outside brackets, read-out: MES-SA (toxicity, Table 2)
From the text: (§1) MDCK II canine kidney cells, A431 epidermoid carcinoma cells, the human uterine sarcoma cell lines MES-SA and the doxorubicin selected MES-SA-Dx5 were obtained from ATCC (MDCK II: No. CRL-2936™, A431: No. CRL-1555™, MES-SA: No. CRL-1976™, MES-SA/Dx5: No. CRL-1977™). ABCB1 was expressed in A431 and MES-SA cells using lentiviral transduction. The human cervix carcinoma cell line KB-3-1 and the vinblastine selected KB-v1were kind gifts from Dr. Michael M. Gottesman, National Institutes of Health. The phenotype of the resistant cells was verified using cytotoxicity assays. MDCK-B1 and MDCK-MM were established by the Sleeping Beauty transposon-based gene delivery system. OVCAR-8 and NCI-ADRres cells (obtained from the Division of Cancer Treatment and Diagnosis (DCTD) Tumor Repository (National Cancer Institute, Frederick, MD, USA)) were cultivated in RPMI-1640 (Sigma Aldrich, Budapest, Hungary), and other cell lines were cultivated in Dulbecco’s Modified Eagle Medium (DMEM, Sigma Aldrich, Budapest, Hungary), supplemented with 10% fetal bovine serum, 5 mM glutamine, and 50 unit/mL penicillin and streptomycin (Life Technologies, Carlsbad, CA, USA). All cell lines were cultivated at 37 °C, 5% CO2.
(§2) MTT viability assays were performed as described earlier with minor modifications. Briefly, cells were seeded into 96-well tissue culture plates (Sarstedt, Newton, NC, USA/Orange, Braine-l’Alleud, Belgium) at a density of 5000 cells/well and allowed to attach overnight. Test compounds were added to achieve the required final concentration in a final volume of 100 µL per well. After an incubation period of 72 h, the supernatant was removed and fresh medium containing the MTT reagent (0.083 mg/mL) was added. Incubation with MTT at 37 °C was terminated after 1 h by removing the supernatant and lysing the cells with 100 µL DMSO per well. Viability of the cells was measured spectrophotometrically based on the absorbance values at 540 nm using either a Perkin Elmer Victor X3 or an EnSpire microplate reader. Data were background corrected by subtraction of the signal obtained from unstained cell lysates and normalized to untreated cells. Curves were fitted by Prism software (GraphPad Software Inc., San Diego, CA, USA) using the sigmoidal dose-response model (comparing variable and fixed slopes). […] Significance was calculated using unpaired t-tests; results are given as *: p ≤ 0.05, **: p ≤ 0.01, ***: p ≤ 0.001, ****: p ≤ 0.0001.

[2] = system: MES-SA/Dx5 cells; experiment: MTT viability assay, MES-SA/Dx5; assay type: cell-based, human; conditions: for IC50: read-out: MES-SA/Dx5 (toxicity, Table 2)
From the text: as §1, §2

[3] = pKa by UV-visible spectrophotometric titrations; assay type: physicochemical; conditions: T = 25 °C, I = 0.2 M (KCl); for pKa: 0.2 M KCl (ionic strength)
[4] = system: MES-SA/Dx5 cells; experiment: ROS determination with DCFDA, MES-SA/Dx5; assay type: cell-based, human; conditions: 2 h
Experimental: (§3) Measurements were performed as described earlier. Briefly, cells were harvested, washed with PBS, and incubated with 10 µM DCFDA in a water bath shaker at 37 °C for 30 min in a density of 3 × 10^6 cells/mL. After washing with PBS, cells were seeded to 96-well plates in PBS in a density of 2 × 10^4 cells/well. Following the measurement of the basal fluorescence, test compounds were added in different concentrations and the fluorescence of the samples was followed at time intervals of 10 min. DCFDA solution in buffer was used as a cell free control to test for interaction of the test compounds with DCFDA. Data were analyzed as fold change of fluorescence compared to basal levels and untreated cells. Significance was calculated using unpaired t-tests; results are given as *: p ≤ 0.05, **: p ≤ 0.01, ***: p ≤ 0.001, ****: p ≤ 0.0001.
(§4) Table S3: Characterization of intracellular ROS production with the DCFDA assay for P -gp negative MES-SA and P-gp positive MES-SA/Dx5 cells. Fold changes in fluorescence are shown after a 2 h with the investigated 8 -hydroxyquinoline ligands. Data S-refer to Figure 7 and allow […]
(§5) concentration range from 6.25µ M to 50µ M. Fold change of fluorescence obtained in the presence of 5 mM NAC is given in brackets.

[5] = system: MES-SA cells; experiment: ROS determination with DCFDA, MES-SA; assay type: cell-based, human; conditions: 2 h
Experimental: as §3, §4, §5

[6] = Table 2, value in brackets (Tariquidar as in Table 1)
[7] = Table 2, value outside brackets
[8] = MES-SA/Dx5, 6.25 µM, presence of 5 mM NAC (brackets)
[9] = MES-SA/Dx5, 12.5 µM, presence of 5 mM NAC (brackets)
[10] = MES-SA/Dx5, 25 µM, presence of 5 mM NAC (brackets)
[11] = MES-SA/Dx5, 50 µM, presence of 5 mM NAC (brackets)
[12] = 6.25 µM, presence of 5 mM NAC (brackets)
[13] = 12.5 µM, presence of 5 mM NAC (brackets)
[14] = 25 µM, presence of 5 mM NAC (brackets)
[15] = 50 µM, presence of 5 mM NAC (brackets)
[16] = Homo sapiens, MES-SA/Dx5, Table 2, value outside brackets
[17] = group named in the cell (NmorpholiniumH+, NpiperidiniumH+, NbenzylamineH2+), read-out: pKa (additional)

For “7-(2-fluorobenzyl-aminomethyl)-8-hydroxyquinoline hydrochloride [De-Cl-Q-4]”, the IC50 [1] was 1780 ± 80 nM, the “SR MES-SA/Dx5 (Table 2)” value [2, 6] was 1.72 and the “SR MES-SA/Dx5 (Table 2)” value [2, 7] was 5.22. The IC50 [2, 7] was 340 ± 10 nM, the “pKa (NquinoliniumH+)” value [3] was 3.21 ± 0.04 and the “pKa (OH)” value [3] was 6.42 ± 0.04. The “pKa (additional)” value ([3]; group named in the cell (NmorpholiniumH+, NpiperidiniumH+, NbenzylamineH2+)) was 10.69 ± 0.04 (NbenzylamineH2^+), the “Fold change in fluorescence (DCFDA)” value ([4]; MES-SA/Dx5, 6.25 µM) was 1.282± 0.35 and the “Fold change in fluorescence (DCFDA)” value [4, 8] was 1.137± 0.30. For the same compound, the “Fold change in fluorescence (DCFDA)” value ([4]; MES-SA/Dx5, 12.5 µM) was 1.177± 0.22, the “Fold change in fluorescence (DCFDA)” value [4, 9] was 1.088± 0.23 and the “Fold change in fluorescence (DCFDA)” value ([4]; MES-SA/Dx5, 25 µM) was 1.344± 0.27. For the same compound, the “Fold change in fluorescence (DCFDA)” value [4, 10] was 1.282± 0.28, the “Fold change in fluorescence (DCFDA)” value ([4]; MES-SA/Dx5, 50 µM) was 1.373± 0.35 and the “Fold change in fluorescence (DCFDA)” value [4, 11] was 1.265± 0.27. The “Fold change in fluorescence (DCFDA)” value ([5]; 6.25 µM) was 1.431± 0.39, the “Fold change in fluorescence (DCFDA)” value [5, 12] was 1.364± 0.44 and the “Fold change in fluorescence (DCFDA)” value ([5]; 12.5 µM) was 1.118± 0.14. For the same compound, the “Fold change in fluorescence (DCFDA)” value [5, 13] was 1.345± 0.27, the “Fold change in fluorescence (DCFDA)” value ([5]; 25 µM) was 1.260± 0.20 and the “Fold change in fluorescence (DCFDA)” value [5, 14] was 1.111± 0.22. The “Fold change in fluorescence (DCFDA)” value ([5]; 50 µM) was 1.328± 0.29 and the “Fold change in fluorescence (DCFDA)” value [5, 15] was 1.259± 0.29.
With `Oc1c(CN2CCCCC2)cc(Cl)c2cccnc12` [Compound 5-Cl-Q-3] the IC50 ([1]; Homo sapiens, MES-SA) was 1300 ± 210 nM, the IC50 [2, 16] was 150 ± 10 nM and the “SR MES-SA/Dx5 (Table 2)” value [2, 6] was 1.61. For the same compound, the “SR MES-SA/Dx5 (Table 2)” value [2, 7] was 8.40, the pKa [3, 17] was 7.16 ± 0.03 and the pKa ([3]; read-out: pKa (NquinoliniumH+)) was 1.61 ± 0.04. For the same compound, the pKa ([3]; read-out: pKa (OH)) was 4.85 ± 0.02, the “Fold change in fluorescence (DCFDA)” value ([4]; MES-SA/Dx5, 6.25 µM) was 1.975± 0.50 and the “Fold change in fluorescence (DCFDA)” value [4, 8] was 1.024± 0.19. The “Fold change in fluorescence (DCFDA)” value ([4]; MES-SA/Dx5, 12.5 µM) was 1.954± 0.42, the “Fold change in fluorescence (DCFDA)” value [4, 9] was 0.954± 0.14 and the “Fold change in fluorescence (DCFDA)” value ([4]; MES-SA/Dx5, 25 µM) was 2.714± 0.84. The “Fold change in fluorescence (DCFDA)” value [4, 10] was 1.005± 0.21, the “Fold change in fluorescence (DCFDA)” value ([4]; MES-SA/Dx5, 50 µM) was 3.077± 1.29 and the “Fold change in fluorescence (DCFDA)” value [4, 11] was 1.086± 0.14. For the same compound, the “Fold change in fluorescence (DCFDA)” value ([5]; 6.25 µM) was 1.672± 0.27, the “Fold change in fluorescence (DCFDA)” value [5, 12] was 1.307± 0.51 and the “Fold change in fluorescence (DCFDA)” value ([5]; 12.5 µM) was 1.861± 0.40. For the same compound, the “Fold change in fluorescence (DCFDA)” value [5, 13] was 1.542± 0.35, the “Fold change in fluorescence (DCFDA)” value ([5]; 25 µM) was 1.812± 0.27 and the “Fold change in fluorescence (DCFDA)” value [5, 14] was 1.382± 0.67. For the same compound, the “Fold change in fluorescence (DCFDA)” value ([5]; 50 µM) was 2.075± 0.68 and the “Fold change in fluorescence (DCFDA)” value [5, 15] was 1.155± 0.25.
In the case of `Oc1c(CN2CCOCC2)cc(Cl)c2cccnc12` [Compound 5-Cl-Q-2], the IC50 ([1]; Homo sapiens, MES-SA) is reported as 1400 ± 240 nM, the IC50 [2, 16] is reported as 640 ± 30 nM and the “SR MES-SA/Dx5 (Table 2)” value [2, 6] is reported as 1.39. The “SR MES-SA/Dx5 (Table 2)” value [2, 7] was 2.19, the pKa [3, 17] was 5.83 ± 0.02 and the pKa ([3]; read-out: pKa (NquinoliniumH+)) was < 2. The pKa ([3]; read-out: pKa (OH)) was 9.68 ± 0.03, the “Fold change in fluorescence (DCFDA)” value ([4]; MES-SA/Dx5, 6.25 µM) was 2.594± 0.87 and the “Fold change in fluorescence (DCFDA)” value [4, 8] was 1.246± 0.47. The “Fold change in fluorescence (DCFDA)” value ([4]; MES-SA/Dx5, 12.5 µM) was 3.214± 0.86, the “Fold change in fluorescence (DCFDA)” value [4, 9] was 1.651± 0.73 and the “Fold change in fluorescence (DCFDA)” value [4, 10] was 1.265± 0.27. For the same compound, the “Fold change in fluorescence (DCFDA)” value ([4]; MES-SA/Dx5, 50 µM) was 4.697± 3.24, the “Fold change in fluorescence (DCFDA)” value [4, 11] was 1.462± 0.39 and the “Fold change in fluorescence (DCFDA)” value ([5]; 6.25 µM) was 1.896± 0.32. For the same compound, the “Fold change in fluorescence (DCFDA)” value [5, 12] was 1.600± 0.55, the “Fold change in fluorescence (DCFDA)” value ([5]; 12.5 µM) was 2.226± 0.39 and the “Fold change in fluorescence (DCFDA)” value [5, 13] was 1.263± 0.62. The “Fold change in fluorescence (DCFDA)” value ([5]; 25 µM) was 2.086± 0.66, the “Fold change in fluorescence (DCFDA)” value [5, 14] was 1.309± 0.51 and the “Fold change in fluorescence (DCFDA)” value ([5]; 50 µM) was 2.609± 0.77. The “Fold change in fluorescence (DCFDA)” value [5, 15] was 1.178± 0.40.
